Data set [1] concerns HepG2. Nature of the data set: Induction of apoptosis in human HepG2 cells assessed as viable cells at 20 uM measured after 24 hrs incubation by Propidium iodide/Annexin V-FITC analysis (reference value: 90.2%). The format is functional. The settings on record: read-out: Activity.
In data set [2] the test system is HepG2. Briefly: Antitumor activity against human HepG2 cells xenografted mouse model assessed as reduction in tumor growth inhibition at 1 mg/kg, ip administered once every 2 days for 21 days relative to control. The format is functional. The settings on record: HepG2, 504 h, time 21 day, read-out: TGI.
A short description of data set [3]: Toxicity in mouse xenografted with human HepG2 cells assessed as histopathological changes in kidney at 5 to 10 mg/kg, ip administered once every 2 days for 21 days by H and E staining based analysis. It is filed as organism-based. The settings on record: in vivo, 504 h, dose 5-10 mg/kg, time 21 day.
Data set [4] deals with HepG2. Nature of the data set: Induction of apoptosis in human HepG2 cells assessed as necrotic cells at 5 uM measured after 24 hrs incubation by Propidium iodide/Annexin V-FITC analysis (reference value: 1.14%). The format is functional.
The nature of data set [5]: Toxicity in mouse xenografted with human HepG2 cells assessed as lactate dehydrogenase (LDH) at 5 to 10 mg/kg, ip administered once every 2 days for 21 days. The format is organism-based. The settings on record: in vivo, 504 h, dose 5-10 mg/kg, time 21 day.
In a further data set the test system is MCF7. Briefly: Antiproliferative activity against human MCF7 cells by MTT assay. The format is functional, cell-based.
The test system of data set [6] is Lipid bilayer. Briefly: Vesicular anionophoric activity in large unilamellar vesicle membrane derived from egg-yolk L-alpha-phosphatidylcholine assessed as induction of relative efflux of chloride ions in presence of rubidium (Rb+) measured up to 300 seconds by using chloride-selective electrode. Particulars: time <= 300.0 sec.
The subject of data set [7] is HepG2. Nature of the data set: Induction of chloride ion influx in human HepG2 cells assessed as effect on lysosomal chloride anions at 5 to 20 uM measured after 12 hrs incubation by chloride-sensitive dye MQAE-MP based CLSM imaging analysis. The format is functional, cell-based. Particulars: dose 5-20 µM.
Data set [8] concerns Lipid bilayer. Nature of the data set: Vesicular anionophoric activity in large unilamellar vesicle membrane derived from egg-yolk L-alpha-phosphatidylcholine assessed as induction of relative efflux of chloride ions in presence of potassium (K+) measured up to 300 seconds by using chloride-selective electrode. Particulars: time <= 300.0 sec.
Data set [9] concerns HepG2. Nature of the data set: Induction of Golgi apparatus disruption in human HepG2 cells at 5 to 10 uM measured after 24 hrs by TEM imaging analysis. It is filed as functional, cell-based. Particulars: dose 5-10 µM.
Data set [10] relates to HepG2. Briefly: Disruption of homeostasis of chloride anions in golgi apparatus of human HepG2 cells assessed as increase in fluorescence intensity of 6-methoxy-1-(2-oxo-2-((4-sulfamoylphenyl)amino)ethyl)quinolin-1-ium Bromide measured after 12 hts by CLSM imaging analysis. It is filed as functional, cell-based.
In data set [11] the test system is Lipid bilayer. Nature of the data set: Vesicular anionophoric activity in large unilamellar vesicle membrane derived from egg-yolk L-alpha-phosphatidylcholine assessed as induction of relative efflux of chloride ions in presence of lithium (Li+) measured up to 300 seconds by using chloride-selective electrode. Particulars: time <= 300.0 sec.
Data set [12] concerns HepG2. Briefly: Suppression of Golgi structural and functional protein expression in human HepG2 cells assessed as decrease in GM130 protein expression at 5 to 20 uM measured after 48 hrs incubation by Western blot analysis. The format is cell-based. Particulars: dose 5-20 µM.
In data set [13] the test system is HepG2. Briefly: Induction of apoptosis in human HepG2 cells assessed as reduction in Golgi-associated apoptotic proteins (GAAPs) expression measured after 24 hrs by Western blot analysis. The format is functional, cell-based.
Data set [14] is described as follows: Toxicity in mouse xenografted with human HepG2 cells assessed as body weight change at 5 to 10 mg/kg, ip administered once every 2 days for 21 days. It is filed as organism-based. Particulars: in vivo, 504 h, dose 5-10 mg/kg, time 21 day.
For data set [15], the system named is HepG2. Nature of the data set: Induction of chloride ion influx in human HepG2 cells assessed as increase in intracellular chloride anions at 5 to 20 uM measured after 12 hrs incubation by chloride-sensitive dye MQAE-based CLSM imaging analysis. Particulars: dose 5-20 µM. It is filed as functional, cell-based.
Data set [16] can be described thus: Toxicity in mouse xenografted with human HepG2 cells assessed as histopathological changes in spleen at 5 to 10 mg/kg, ip administered once every 2 days for 21 days by H and E staining based analysis. The format is organism-based. Particulars: in vivo, 504 h, dose 5-10 mg/kg, time 21 day.
Data set [17] has as its system HepG2. Nature of the data set: Induction of autophagosome formation in human HepG2 cells assessed as green fluorescence in mitochondria by measuring pearson co-localization at 10 uM measured after 12 hrs incubation by mCherry-LC3B assay. The format is functional.
For data set [18], the system named is HepG2. Briefly: Induction of apoptosis in human HepG2 cells assessed as early apoptotic cells at 5 uM measured after 24 hrs incubation by Propidium iodide/Annexin V-FITC analysis (reference value: 2.90%). It is filed as functional.
Data set [19] concerns HepG2. Briefly: Induction of apoptosis in human HepG2 cells assessed as late apoptotic cells at 20 uM measured after 24 hrs incubation by Propidium iodide/Annexin V-FITC analysis (reference value: 5.71%). The format is functional.
In data set [20] the test system is HepG2. Nature of the data set: Induction of apoptosis in human HepG2 cells assessed as necrotic cells at 10 uM measured after 24 hrs incubation by Propidium iodide/Annexin V-FITC analysis (reference value: 1.14%). It is filed as functional.
The test system of another data set is A2780. Briefly: Antiproliferative activity against human A2780 cells by MTT assay. The format is functional, cell-based.
The nature of data set [21]: Toxicity in mouse xenografted with human HepG2 cells assessed as alanine aminotransferase (ALT) in serum at 5 to 10 mg/kg, ip administered once every 2 days for 21 days. It is filed as organism-based. The settings on record: in vivo, 504 h, dose 5-10 mg/kg, time 21 day.
Data set [22] deals with HepG2. Nature of the data set: Induction of apoptosis in human HepG2 cells assessed as viable cells at 5 uM measured after 24 hrs incubation by Propidium iodide/Annexin V-FITC analysis (reference value: 90.2%). It is filed as functional. Particulars: read-out: Activity.

Active and inactive are the calls of the source. The rule behind the calls is not given here. Where only a bound is given, the exact number is not on record here.

Take `NS(=O)(=O)c1ccc(NC(=O)CCCCCNc2c(Nc3cc(C(F)(F)F)cc(C(F)(F)F)c3)c(=O)c2=O)cc1`: in the data set with HepG2 [1], the viability at 20 µM turned out to be 22.1%. For the same molecule, the inhibition in vivo at 1 mg/kg in the data set on HepG2 [2] amounted to 41%. In addition, the Activity entry was “Non-toxic” in [3]; 1.64% in the data set on HepG2 [4]; “Non-toxic” in data set [5]; “Dose-dependent-effect” in the data set on HepG2 [13]; “Non-toxic” in data set [14]; “Non-toxic” in data set [16]. Also, the Activity with HepG2 [17] is reported as 0.23; in the data set on HepG2 [18], 12%; in the data set with HepG2 [19] it was 36.5%; in the data set on HepG2 [20] it was 5.17%; in data set [21], “Non-toxic”. Further, the figures for the concentration for half-maximal inhibition (IC50) with MCF7 and with A2780 were 12.7 µM and > 50 µM, respectively. The result in the data set with Lipid bilayer [6], in the data set on Lipid bilayer [8], with HepG2 [9], in the data set with Lipid bilayer [11], in the data set on HepG2 [12] and in the data set with HepG2 [15] was Active. In the data set with HepG2 [7], the outcome was inactive. For the same molecule, the EC50 with HepG2 [10] turned out to be 13.8 µM. For the same molecule, the viability at 5 µM with HepG2 [22] stood at 73.5%.

Source of the values: ChEMBL document CHEMBL6177955, “Design, synthesis and biological evaluation of Golgi-targeting anion transporters as inducers of Golgiphagy and apoptosis in cancer cells” (Eur J Med Chem, 2025).
